Source: ChEMBL document CHEMBL1201862, “PubChem BioAssay data set” (2004)
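Method: 48-hour compound exposure of cells in 96-well plates, five concentrations, linear interpolation of endpoints. At the GI50, growth is halved.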 Activity calls are given as the source filed them. Cut-off read from the data, not from the text of the source: active = GI50 up to about 1.1 µM and inactive = higher.

Tests used:
Assay in all cases: NCI tumour cell line growth inhibition, 48 h
M14 = tested on: M14
SR = tested on: SR
NCI-H226 = tested on: NCI-H226
RPMI-8226 = tested on: RPMI-8226
SF-295 = tested on: SF-295
HCT-116 = tested on: HCT-116
HT-29 = tested on: HT-29
SK-MEL-5 = tested on: SK-MEL-5
CCRF-CEM = tested on: CCRF-CEM
SN12C = tested on: SN12C
COLO 205 = tested on: COLO 205
HL-60 = tested on: HL-60
SW-620 = tested on: SW-620
OVCAR-5 = tested on: OVCAR-5
BT-549 = tested on: BT-549
SK-MEL-28 = tested on: SK-MEL-28
OVCAR-8 = tested on: OVCAR-8
SNB-75 = tested on: SNB-75
HOP-62 = tested on: HOP-62

Measured: GI50

COc1ccc(OC)c(N2C(=O)CSC2c2cc(OC)c(OC)c(OC)c2)c1 (centres undefined)
inactive: M14 > 100 µM | SR 46 µM | NCI-H226 > 100 µM | RPMI-8226 > 100 µM | SF-295 > 100 µM | HCT-116 > 100 µM | HT-29 > 100 µM | SK-MEL-5 99.8 µM | CCRF-CEM 71.8 µM | SN12C > 100 µM | COLO 205 > 100 µM | HL-60 > 100 µM | SW-620 > 100 µM | OVCAR-5 > 100 µM | BT-549 48.4 µM | SK-MEL-28 > 100 µM | OVCAR-8 > 100 µM

O=C1C=CC2CCC1C2 (centres undefined)
inactive: M14 27.4 µM | NCI-H226 39.4 µM | RPMI-8226 34 µM | SF-295 44.2 µM | SNB-75 27.5 µM | HCT-116 23.4 µM | HT-29 32.3 µM | SK-MEL-5 28.6 µM | CCRF-CEM 28.4 µM | SN12C 30.4 µM | HOP-62 43.1 µM | COLO 205 33.7 µM | HL-60 19.2 µM | SW-620 32.1 µM | OVCAR-5 26.2 µM | BT-549 21.4 µM | SK-MEL-28 23.5 µM | OVCAR-8 28.7 µM

C=CCOc1ccc(C(=N/NC(=O)c2ccccc2)/N=N/c2ccccc2)cc1OC
inactive: M14 > 100 µM | SR 77.1 µM | NCI-H226 60.5 µM | SF-295 > 100 µM | SNB-75 > 100 µM | HCT-116 67.9 µM | HT-29 46.5 µM | SK-MEL-5 50.5 µM | CCRF-CEM 36.6 µM | SN12C > 100 µM | HOP-62 > 100 µM | COLO 205 55 µM | HL-60 37.8 µM | SW-620 > 100 µM | OVCAR-5 > 100 µM | BT-549 42.5 µM | SK-MEL-28 > 100 µM | OVCAR-8 65.3 µM

C=C(C(=O)OCC)C(=O)OCC
inactive: M14 > 100 µM | SR 20.7 µM | NCI-H226 > 100 µM | RPMI-8226 > 100 µM | SF-295 > 100 µM | SNB-75 > 100 µM | HCT-116 > 100 µM | HT-29 > 100 µM | SK-MEL-5 > 100 µM | CCRF-CEM > 100 µM | SN12C > 100 µM | HOP-62 > 100 µM | COLO 205 > 100 µM | SW-620 > 100 µM | OVCAR-5 > 100 µM | BT-549 > 100 µM | SK-MEL-28 > 100 µM | OVCAR-8 > 100 µM

O=C(O)c1ccccc1/C=N/N=C1c2ccccc2-c2ccccc21
inactive: M14 42.2 µM | SR 27.3 µM | NCI-H226 20.8 µM | RPMI-8226 20.2 µM | SF-295 29.3 µM | HCT-116 31 µM | HT-29 29 µM | SK-MEL-5 33.3 µM | CCRF-CEM 25.5 µM | SN12C 28.2 µM | HOP-62 42.6 µM | COLO 205 32.1 µM | HL-60 28.8 µM | SW-620 32.4 µM | OVCAR-5 50.2 µM | BT-549 71.9 µM | SK-MEL-28 51.2 µM | OVCAR-8 44.9 µM

C=C(C)[C@@H]1CC[C@]2(C(=O)O)CC[C@]3(C)[C@H](CC[C@@H]4[C@@]5(C)CC[C@H](C(=O)/C=C/c6ccc(O)cc6)C(C)(C)[C@@H]5CC[C@]43C)[C@@H]12
inactive: M14 7.13 µM | SR 4.06 µM | SF-295 6.15 µM | SNB-75 > 10 µM | HCT-116 2.51 µM | HT-29 3.38 µM | SK-MEL-5 2.55 µM | CCRF-CEM 2.39 µM | SN12C 3.05 µM | HOP-62 8.39 µM | COLO 205 2.39 µM | HL-60 1.15 µM | SW-620 2.93 µM | OVCAR-5 11.5 µM | BT-549 10.4 µM | SK-MEL-28 11.9 µM | OVCAR-8 4.3 µM

Cc1ccc(Cc2n[nH]c(=O)n2/N=C\CC/C=N\n2c(Cc3ccc(C)cc3)n[nH]c2=O)cc1
inactive: M14 27.3 µM | NCI-H226 24.4 µM | RPMI-8226 57.9 µM | SF-295 29.9 µM | SNB-75 16.6 µM | HCT-116 33.1 µM | HT-29 28.8 µM | SK-MEL-5 42.2 µM | CCRF-CEM 4.1 µM | SN12C 44.7 µM | HOP-62 6.37 µM | COLO 205 > 100 µM | HL-60 14.6 µM | SW-620 43 µM | OVCAR-5 > 100 µM | BT-549 23 µM | SK-MEL-28 33.5 µM | OVCAR-8 17.8 µM
